Results reported in publication PMC12097015, “Development of MDM2‐Targeting PROTAC for Advancing Bone Regeneration” (Advanced Science, 2025).

Tests used:
[1] = tested on: OVX-induced osteoporosis model; experiment: Ovariectomy (OVX)-induced osteoporosis mouse model; type: in vivo, C57BL6 mice; conditions: OVX mice
Protocol: -Establishment of Ovariectomized Mice Model: The experimental protocols were approved by the IACUC (Approval code: IACUC230118) at the CHA Laboratory Animal Research Center. The mice were handled in compliance with the Guidelines for the Care and Use of Animals at the institution. Female C57BL6 mice (seven weeks old (n = 57)) were randomly divided into six groups (n = 8-10): […] All surgeries and pump implantations were performed under aseptic conditions. Mice were anesthetized before removing both sides of the ovaries. In the fourth week following surgery, an Alzet osmotic pump (Durect Corp, #1004) was implanted in the mice. […] Images were acquired at an effective pixel size of 50 μm (130 kV and 60 μA radiation source; 1.0 mm aluminum filter). Subsequently, 3D images were reconstructed from the 2D X-ray projections by implementing the Feldkamp algorithm, and appropriate image corrections, including ring artifact correction, beam hardening correction, and fine-tuning, were processed using NRecon software (SkyScan 1173, Belgium). The dynamic image range (contrast limits) was determined at 0-0.3 in units of attenuation coefficient and was applied to all datasets for optimum image contrast. After acquisition and reconstruction of the datasets, images were first reoriented on each 3D plane using DataViewer software (SkyScan 1173, Belgium) to align the long axis of the femur parallel to the coronal and sagittal planes. Next, 3D morphometric analyses of the distal femur and body of the lumbar vertebrae were performed using CT-Analyzer software (SkyScan 1173, Belgium). Regarding the region of interest (ROI), this work analyzed the 1.5 mm […] trabecular bone of the distal femur metaphysis, excluding the growth plate. The ROIs were delineated using a freehand drawing tool while maintaining a […] clearance from the endosteal surface. […] A global threshold of 60 (1.01573 g cm^-3) was applied to all scans to extract a physiologically accurate representation of the trabecular bone phase. […] All quantitative and structural parameters followed the nomenclature and units recommended by the American Society for Bone and Mineral Research (ASBMR) Histomorphometry Nomenclature Committee. After data quantification,^[ [26b] ^] 3D rendered images were generated to visualize the analyzed regions using the marching cube method. -H&E staining: Following decalcification, the specimens were fixed in paraffin and longitudinally sliced to a thickness of 3 μm using a microtome. Subsequently, each sample was affixed to a slide and exposed to a temperature of 55 °C. […] The slides underwent a 1 min wash in flowing purified water and immersed in Harris hematoxylin-I for 5 min, followed by a 1 min wash under flowing tap water. Sections were briefly immersed in ammonia water for 30 s and washed with tap water for 3 min. Subsequently, the sections were stained with Eosin Y for 2 min and 30 s, followed by gradual drying in 95%-100% ethanol. Any residual stain was rinsed with distilled water and each section was mounted. -Masson's trichrome staining: Following deparaffinization and hydration, the sections underwent treatment with a mordant containing a 5% iron alum solution in a dry oven at 56 °C for 30 min. Sections were washed under running tap water for 5-6 min to remove picric acid. Sections were stained with Weigert's iron hematoxylin solution for 10 min, followed by rinsing with purified water. A 5 min staining with Biebrich scarlet-acid fuchsin solution ensued, succeeded by washing with purified water. The sections were immersed in a phosphomolybdic-phosphotungstic acid solution for 5 min. After discarding the solution, the sections were washed with distilled water. Differentiation was performed in 1% glacial acetic acid solution for 3 min. The solution was discarded, and the remaining stain was washed with distilled water.

MDM2 [2] = target: T1, MDM2 (Homo sapiens, UniProt Q00987); experiment: MDM2 degradation by western blot in hBMSCs; type: cell-based; parameters: endogenous in cells; host or cells: hBMSCs
Protocol: Human Bone Marrow‐derived Mesenchymal Stem Cells (hBMSCs) were provided by Professor Lee's laboratory, and cells from passages four to nine were used for all experiments. hBMSCs were cultured in alpha‐minimum essential medium (Welgene, LM008‐01) supplemented with 10% Fetal Bovine Serum (FBS) (Gibco, US origin, 16000–044) and 1% penicillin/streptomycin (Gibco, 15140‐122).
After discarding the medium and washing the cells twice with cold dPBS, the cells were collected using a scraper and lysed using RIPA buffer (GenDEPOT, R4200‐010) containing protease and phosphatase inhibitors (GenDEPOT, P3200‐001). The collected samples were centrifuged at 13 200 rpm for 10 min at 4 °C, and the supernatant containing total protein was collected. SDS‐PAGE gels (10–12%) were prepared, and protein samples were mixed with 5X loading buffer containing reducing agent (Biosesang, S2002) and heated at 98 °C for 5 min. Equal amounts of protein samples were loaded onto a gel, separated by electrophoresis, and transferred onto nitrocellulose membranes using a Dry Transfer Stacks Kit (Invitrogen, IB23001). The membrane was blocked with 5% nonfat milk in 1X TBST for 1 h at room temperature to prevent nonspecific binding. The membranes were incubated with primary antibodies specific to the target proteins overnight at 4 °C with gentle shaking. The next day, the membrane was washed three times with TBST at 10 min intervals to remove unbound primary antibodies. The membranes were incubated with secondary antibodies (anti‐rabbit and anti‐mouse) conjugated to horseradish peroxidase (HRP) for 1 h at room temperature. The membrane was washed three times with 1X TBST at 10 min intervals to remove unbound secondary antibodies. After washing, a chemiluminescent substrate (ECL, Millipore, WBULS0100) was applied to the membrane to visualize protein bands using a chemiluminescence detector (for the antibodies used, see Table S2, Supporting Information).
The DC50 and Dmax values were calculated by western blot band quantification according to compound concentrations. The quantification value was normalized to the value relative to the untreated group and calculated using the sigmoidal dose‐response (variable slope) equation in GraphPad Prism.
Target sequence in this assay (Q00987 whole entry): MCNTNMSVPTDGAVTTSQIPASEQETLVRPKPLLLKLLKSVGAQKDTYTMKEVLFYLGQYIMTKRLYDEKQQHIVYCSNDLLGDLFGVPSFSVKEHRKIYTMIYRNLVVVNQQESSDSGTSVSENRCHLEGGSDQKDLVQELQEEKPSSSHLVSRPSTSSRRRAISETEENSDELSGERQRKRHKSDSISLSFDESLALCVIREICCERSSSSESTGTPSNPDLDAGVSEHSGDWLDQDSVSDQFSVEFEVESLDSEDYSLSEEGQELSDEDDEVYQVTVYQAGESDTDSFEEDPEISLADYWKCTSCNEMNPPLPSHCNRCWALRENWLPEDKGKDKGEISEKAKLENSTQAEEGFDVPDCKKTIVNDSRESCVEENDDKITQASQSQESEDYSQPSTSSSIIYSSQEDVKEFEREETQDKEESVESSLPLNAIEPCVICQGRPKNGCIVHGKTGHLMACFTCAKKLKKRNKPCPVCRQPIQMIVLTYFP

MDM2 [3] = target: T1, MDM2; experiment: Microscale thermophoresis (MST) binding assay; parameters: made in house; host or cells: E. coli BL21 (DE3); conditions: His-Tag MDM2, n = 3, read-out: dissociation constant (Kd)
Target sequence in this assay (Q00987 whole entry, species assumed): as the sequence (Q00987 whole entry) above
Protocol: E. coli BL21 (DE3) competent cells transformed with pSPEL870 were used to express MDM2 protein.^[ [27] ^] The recombinant strain was cultured in 500 mL 2XYT at 37 °C until the optical density (OD600 ) reached 0.5. Protein expression was induced by adding 0.2 mM isopropyl β‐D‐1‐thiogalactopyranoside (IPTG; Bioshop, Canada) at 20 °C overnight. […] The protein was purified using Ni‐NTA resin (Qiagen, Germany), according to the manufacturer's protocol. The purified protein was buffer exchanged with phosphate‐buffered saline (PBS, pH 7.4) using a centrifugal filter unit (MWCO: 10 K; Merck Millipore, USA). The protein was stored at –20 °C in PBS with 20% glycerol and 1 mM dithiothreitol (DTT).
The His‐Tag MDM2 protein was labeled using a His‐Tag Labeling Kit RED‐tris‐NTA second Generation (NanoTemper, MO‐L018) according to the manufacturer's instructions. […] The final mixtures were transferred to capillaries (NanoTemper, MO‐K022) and the samples were measured using a Monolith NT.115Pico (NanoTemper) instrument (auto LED power; medium MST power). […] The signals were represented as normalized changes in fluorescence (Fnorm ) upon ligand binding. Baseline‐corrected normalized fluorescence (DFnorm ) was obtained from Fnorm values using MO Affinity Analysis, and the dissociation constants (Kd ) were determined by curve fitting (variable slope model) using GraphPad Prism 10.

[4] = 0.5 mg kg^−1, osmotic pump 28 days
[5] = 0.5 mg kg^−1, same concentration of Nutlin‐3

Structure (SMILES): COc1ccc(C2=N[C@H](c3ccc(Cl)cc3)[C@H](c3ccc(Cl)cc3)N2C(=O)N2CCN(CC(=O)NCCCCCCCCOc3cccc4c3C(=O)N(C3CCC(=O)NC3=O)C4=O)C(=O)C2)c(OC(C)C)c1 (stereo in doubt) [CL144]
- regenerative effect compared with alendronate ([1]; 0.5 mg kg^−1): results comparable to those of the alendronate‐treated group
- recovery in BV/TV compared to the OVX group [1, 4]: 65%
- recovery in Tb.N compared to the OVX group [1, 4]: 58%
- improvement in BV/TV compared to the Nutlin‐3 group [1, 5]: 56%
- improvement in Tb.N compared to the Nutlin‐3 group [1, 5]: 61%
- recovery in BMD compared to the OVX group ([1]; 1 mg kg^−1, osmotic pump 28 days): 12%
- improvement in BMD compared to the Nutlin‐3 group ([1]; 1 mg kg^−1, same concentration of Nutlin‐3): 13%
- bone histology (H&E staining) versus OVX group ([1]; tibia and femur tissues): newly formed trabecular structures were observed
- MDM2 degradation, dose-dependent effect (MDM2 [2]; 0.1 µM to 10 µM): robust MDM2 degradation
- MDM2 degradation (MDM2 [2]; 10 µM, neo-substrate experiment): ≈ 70%
- decrease in MDM2 levels compared to the basal level (MDM2 [2]; 10 μΜ for 1 h): over 80%
- maximal degradation concentration (Dmax) (MDM2 [2]; quantified western blot, 1 nM to 50 µM, n = 2): 1 μΜ
- DC50 (MDM2 [2]; quantified western blot, 1 nM to 50 µM, n = 2, read-out: half‐maximal degradation concentration (DC50)): 90 nM
- Kd (MDM2 [3]): 1120 nM
